In article PMC10458253, “Unraveling the In Vitro Toxicity Profile of Psychedelic 2C Phenethylamines and Their N-Benzylphenethylamine (NBOMe) Analogues” (Pharmaceuticals, 2023):

Tests used:
[1] = tested on: HepG2 cells; assay: Effect of CYP inhibitors on drug cytotoxicity (resazurin reduction), HepG2; format: cell-based; conditions: HepG2, 24 h, drug concentrations as given in the source; for change of resazurin reduction with ketoconazole vs drug alone: 1 μM ketoconazole; for change of resazurin reduction with quinidine vs drug alone: 10 μM quinidine; for change of resazurin reduction with ABT vs drug alone: 1000 μM ABT
Description: Analogously to the studies performed in the neuronal model, the impact of the CYP-mediated metabolism on the cytotoxicity of the tested drugs was also evaluated, in HepG2 cells, 24 h after exposure to the drugs in the presence or absence of different CYP inhibitors: 1000 μM ABT, 10 μM quinidine or 1 μM ketoconazole.
CYP inhibition assay was used to evaluate the drugs’ potential to inhibit drug-metabolizing enzymes. Accordingly, SH-SY5Y and HepG2 cells were seeded in 96-well cell culture plates and pre-incubated with 1000 µM ABT—a non-isoform specific CYP450 inhibitor, 10 µM quinidine—a CYP2D6 inhibitor or 1 µM ketoconazole—a CYP3A4 inhibitor. After 1 h, the drugs (0–500 µM) were co-incubated with the inhibitors for 24 h, at 37 °C, in a 5% CO2–95% air atmosphere. The drugs’ cytotoxicity was then assessed through the neutral red uptake assay for differentiated SH-SY5Y cells, and through the resazurin reduction assay for HepG2 cells, and the results were expressed as percentage of control cells. At least four independent experiments were performed, in triplicate.

[2] = target: T1, hMAO-A (Homo sapiens, UniProt P21397); assay: hMAO-A inhibitory activity assay (kynuramine); format: biochemical; conditions: read-out: % inhibition at 10 µM hMAO-A, kynuramine substrate
T1 construct: purchased Sigma Aldrich; host or cells: insect cells (BTI-TN-5B1-4), recombinant baculovirus
T1 sequence (P21397 1-527): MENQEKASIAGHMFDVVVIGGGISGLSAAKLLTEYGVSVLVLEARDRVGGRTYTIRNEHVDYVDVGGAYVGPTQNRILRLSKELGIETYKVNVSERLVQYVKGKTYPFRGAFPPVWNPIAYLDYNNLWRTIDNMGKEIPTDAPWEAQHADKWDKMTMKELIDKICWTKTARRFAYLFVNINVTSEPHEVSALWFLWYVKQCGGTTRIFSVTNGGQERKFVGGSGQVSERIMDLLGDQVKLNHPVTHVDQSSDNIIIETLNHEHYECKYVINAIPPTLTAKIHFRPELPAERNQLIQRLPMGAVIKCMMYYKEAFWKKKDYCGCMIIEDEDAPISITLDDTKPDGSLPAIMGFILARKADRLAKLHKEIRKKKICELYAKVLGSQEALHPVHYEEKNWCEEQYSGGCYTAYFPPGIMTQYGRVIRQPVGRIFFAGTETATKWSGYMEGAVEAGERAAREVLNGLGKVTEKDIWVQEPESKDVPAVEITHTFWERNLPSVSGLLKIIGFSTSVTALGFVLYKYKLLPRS
Description: (§1) The hMAO inhibitory activities were assessed in microsomal MAO isoforms, prepared from insect cells (BTI-TN-5B1-4) infected with recombinant baculovirus containing cDNA inserts for hMAO-A or hMAO-B, by measuring the enzymatic conversion rates of kynuramine into 4-hydroxyquinoline. […] All assays were performed in sodium phosphate buffer solution 50 mM pH 7.4.
(§2) The percentages of MAO inhibition of each compound were determined from three independent experiments performed in triplicate.

[3] = target: T2, hMAO-B (Homo sapiens, UniProt P27338); assay: biochemical; conditions: read-out: % inhibition at 10 µM hMAO-B, kynuramine substrate
T2 construct: purchased Sigma Aldrich; host or cells: insect cells (BTI-TN-5B1-4), recombinant baculovirus
T2 sequence (P27338 1-520): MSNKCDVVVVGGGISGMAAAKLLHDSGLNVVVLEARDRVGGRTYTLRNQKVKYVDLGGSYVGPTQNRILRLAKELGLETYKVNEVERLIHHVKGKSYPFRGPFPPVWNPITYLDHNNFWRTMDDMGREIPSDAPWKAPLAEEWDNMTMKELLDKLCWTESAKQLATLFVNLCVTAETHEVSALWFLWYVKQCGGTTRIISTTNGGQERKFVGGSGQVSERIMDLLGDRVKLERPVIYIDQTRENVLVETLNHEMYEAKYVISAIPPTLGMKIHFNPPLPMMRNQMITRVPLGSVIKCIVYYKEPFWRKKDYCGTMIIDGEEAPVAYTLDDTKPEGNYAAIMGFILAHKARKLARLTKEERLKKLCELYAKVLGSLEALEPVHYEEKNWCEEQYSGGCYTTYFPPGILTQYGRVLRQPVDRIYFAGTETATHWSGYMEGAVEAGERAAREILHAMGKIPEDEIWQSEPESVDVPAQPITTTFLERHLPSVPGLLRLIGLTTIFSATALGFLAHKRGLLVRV
Description: as §1, §2

[4] = tested on: HepG2 cells; assay: Resazurin reduction cytotoxicity assay, HepG2; format: cell-based; conditions: HepG2, 24 h; for Top (maximal effect): maximum cell death of fitted curve; for EC50: Homo sapiens, cell death curves 0–2000 µM, read-out: EC50 (half-maximum-effect concentrations)
Description: HepG2 cells were acquired from the American Type Culture Collection (Manassas, VA, USA). Cells were cultured in 75 cm^2 flasks using DMEM—high glucose supplemented with a 10% heat inactivated FBS and 1% penicillin/streptomycin mixture, and maintained in a 5% CO2–95% air atmosphere, at 37 °C, until 80% confluence. Cells were routinely subcultured using trypsin-EDTA and, to avoid phenotypic alterations, used between passages 16 and 22. In all experiments, the cells were seeded at a density of 250,000 cells/cm^2 and used 24 h after seeding.
Neutral red uptake and resazurin reduction assays were performed after exposure of differentiated SH-SY5Y and HepG2 cells to the drugs under study. To obtain a concentration–response curve, a broad concentration range (0–2000 µM) was investigated, and cytotoxicity was evaluated 24 h after exposure in 96-well cell culture plates. As previously described, neutral red uptake assay is based on the incorporation of neutral red dye into the lysosomes of viable cells and the amount of dye incorporated represents the cells’ lysosomal functionality, and resazurin reduction assay is based on the irreversible reduction of resazurin dye to the fluorescent resorufin product by metabolically active cells.
Briefly, 24 h after being exposed to different concentrations of the compounds, differentiated SH-SY5Y cells were incubated with either neutral red (50 µg/mL) or resazurin (10 µg/mL) solutions for 90 min, at 37 °C, in a 5% CO2–95% air atmosphere. For HepG2 cells, 24 h after the exposure to the tested drugs, the cells were incubated with either neutral red (50 µg/mL) or resazurin (10 µg/mL) solutions for 45 and 60 min, respectively, at 37 °C, in a 5% CO2–95% air atmosphere.
In the neutral red uptake assay, at the end of the incubation period, the cell culture medium was removed and a solution of absolute ethyl alcohol/distilled water (1:1) with 5% acetic acid was added to extract the dye absorbed only by the viable cells. The absorbance was measured at 540 nm in a multi-well plate reader (PowerWaveX BioTek Instruments, Winooski, VT, USA). In the resazurin assay, at the end of the incubation period, the fluorescence was measured at 530 nm excitation and 590 nm emission wavelengths in a multi-well plate reader (PowerWaveX BioTek Instruments, Winooski, VT, USA).
The results were expressed as a percentage of control cells. At least four independent experiments were performed, in triplicate. For differentiated SH-SY5Y cells, the neutral red uptake assay was identified as the most sensitive assay and, therefore, used for the subsequent experiments. On the other hand, for HepG2 cells, the resazurin reduction assay was identified as the most sensitive assay and, therefore, used for the subsequent experiments.

SMILES: COc1cc([N+](=O)[O-])c(OC)cc1CCN [2C-N, 2,5-dimethoxy-4-nitrophenethylamine]
- change of resazurin reduction with ketoconazole vs drug alone [1]: significant increase in the metabolic capacity of cells
- change of resazurin reduction with quinidine vs drug alone [1]: significant increase in the metabolic capacity of cells
- inhibition at 10 µM [2]: 5.8%
- inhibition at 10 µM [3]: 18%
- Bottom (baseline) [4]: 0.2545
- Hill Slope [4]: 2.334
- Top (maximal effect) [4]: ≈100
- EC50 [4]: 834 µM

SMILES: COc1ccccc1CNCCc1cc(OC)c(OC)c(OC)c1 [Mescaline-NBOMe, 3,4,5-Trimethoxy-N-(2-methoxybenzyl)-β-phenethylamine]
- change of resazurin reduction with ketoconazole vs drug alone [1]: no significant changes in resazurin reduction
- change of resazurin reduction with quinidine vs drug alone [1]: no significant changes in resazurin reduction
- change of resazurin reduction with ABT vs drug alone [1]: small but significant decrease in resazurin reduction
- inhibition at 10 µM [2]: 3.9%
- inhibition at 10 µM [3]: 89%
- Bottom (baseline) [4]: −0.3754
- Hill Slope [4]: 3.411
- Top (maximal effect) [4]: 87.43
- EC50 [4]: 426 µM

SMILES: COc1cc(CCN)cc(OC)c1OC.Cl [Mescaline, 3,4,5-Trimethoxyphenethylamine hydrochloride]
- change of resazurin reduction with ketoconazole vs drug alone [1]: No significant changes
- change of resazurin reduction with quinidine vs drug alone [1]: No significant changes
- change of resazurin reduction with ABT vs drug alone [1]: No significant changes
- inhibition at 10 µM [2]: 2.5%
- inhibition at 10 µM [3]: 21.2%
- cytotoxicity (in words) ([4]; 0–2000 µM): not causing a significant cytotoxicity

SMILES: COc1cc(CCNCc2ccccc2OC)c(OC)cc1Br [25B-NBOMe, 4-Bromo-2,5-dimethoxy-N-(2-methoxybenzyl)-β-phenethylamine]
- change of resazurin reduction with ketoconazole vs drug alone [1]: significant decrease in the cells’ metabolic capacity
- change of resazurin reduction with ABT vs drug alone [1]: small but significant decrease in resazurin reduction
- inhibition at 10 µM [2]: 15%
- inhibition at 10 µM [3]: 33.9%
- Bottom (baseline) [4]: 4.552
- Hill Slope [4]: 3.079
- Top (maximal effect) [4]: 89.49
- EC50 [4]: 32.8 µM

SMILES: COc1cc(CCN)c(OC)cc1Br [2C-B, 4-Bromo-2,5-dimethoxy-β-phenethylamine]
- change of resazurin reduction with ketoconazole vs drug alone [1]: significant decrease in the cells’ metabolic capacity
- change of resazurin reduction with ABT vs drug alone [1]: small but significant decrease in resazurin reduction
- inhibition at 10 µM [2]: 17.5%
- inhibition at 10 µM [3]: 27.2%
- Bottom (baseline) [4]: 1.072
- Hill Slope [4]: 3.731
- Top (maximal effect) [4]: 89.29
- EC50 [4]: 206 µM

SMILES: COc1cc([N+](=O)[O-])c(OC)cc1CCNCc1ccccc1OC [25N-NBOMe, 4-Nitro-2-dimethoxy-N-(2-methoxybenzyl)-β-phenethylamine]
- change of resazurin reduction with ketoconazole vs drug alone [1]: no significant changes in resazurin reduction
- change of resazurin reduction with quinidine vs drug alone [1]: no significant changes in resazurin reduction
- change of resazurin reduction with ABT vs drug alone [1]: small but significant decrease in resazurin reduction
- inhibition at 10 µM [2]: 8.9%
- inhibition at 10 µM [3]: 25.5%
- Bottom (baseline) [4]: 3.464
- Hill Slope [4]: 5.089
- Top (maximal effect) [4]: 87.26
- EC50 [4]: 99.7 µM
